Measured values taken from patent US12344610B2, “APOL1 inhibitors and methods of use” (Maze Therapeutics, Inc., priority 2022, dated 2025).

Columns and labels:
APOL1 G2 = molecular target: T1, APOL1 G2 (Homo sapiens, UniProt O14791, DEL388-389); experiment: APOL1-mediated calcium transport (calcium influx) assay, HEK T-REx/GCaMP6f/APOL1 G2 K6.3 cells, FLIPR TETRA; type: cell-based; settings: prevention of calcium influx; geometric mean of at least 2 assay runs; † = average of a technical replicate from a single assay run
T1 construct: expressed in transfected cells; host or cells: HEK293 T-REx clonal line stably expressing GCaMP6f (HEK T-REx/GCaMP6f/APOL1 G2 K6.3), doxycycline induced
T1 sequence (O14791 with tags, fused parts or gaps DEL388-389): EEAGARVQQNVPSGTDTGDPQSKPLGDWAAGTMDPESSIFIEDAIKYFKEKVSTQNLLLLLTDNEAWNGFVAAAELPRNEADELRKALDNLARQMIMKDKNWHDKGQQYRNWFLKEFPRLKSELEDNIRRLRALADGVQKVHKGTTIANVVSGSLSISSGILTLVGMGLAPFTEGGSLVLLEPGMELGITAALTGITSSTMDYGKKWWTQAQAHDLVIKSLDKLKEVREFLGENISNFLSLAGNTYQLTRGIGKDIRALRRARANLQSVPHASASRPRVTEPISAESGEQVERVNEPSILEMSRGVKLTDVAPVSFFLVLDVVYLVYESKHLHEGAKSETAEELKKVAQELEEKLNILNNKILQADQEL
Method in brief: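 A HEK293 T-REx clone stably expressing GCaMP6f had APOL1 G2 induced with doxycycline (20 ng/mL solution added) for 6 h. Cells were then washed into Ca2+-free Tyrode's buffer (pH 7.4) and preincubated with compounds (duplicate 8-point) for 10 min at room temperature. Ca2+ injection to 5 mM final produced FLIPR GCaMP fluorescence, giving AC50 for influx inhibition (geometric mean, ≥2 runs).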

[1] = system: HEK293 cells overexpressing APOL1 G2; experiment: APOL1 G2 HEK293 cell rescue assay (reversal of cell death caused by overexpression of APOL1); type: cell-based; settings: Homo sapiens, HEK293, HEK293 overexpressing APOL1 G2; geometric mean of at least 2 assay runs; † = single assay run
Method in brief: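 Each compound tested in duplicate wells on one plate per run, with values usually the geometric mean across at least two runs on different days, occasionally from one run only. Read-out: concentration giving half-maximal rescue of APOL1 G2 overexpression-induced death of HEK293 cells.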

| SMILES | AC50 (APOL1 G2) | EC50 [1] |
| --- | --- | --- |
| Cc1nc2cc(OCCN3CCC4(CC3)C(=O)Nc3ccc(Cl)cc34)cc(C(F)(F)F)c2n1[C@H]1C[C@@](C)(O)C1 [Compound 442, 5-chloro-1′-[2-({2-methyl-1-[(cis)-3-hydroxy-3-methylcyclobutyl]-7-(trifluoromethyl)-1H-1,3-benzodiazol-5-yl}oxy)ethyl]-1,2-dihydrospiro[indole-3,4′-piperidin]-2-one] | 2140 nM | < 3.08 nM |
| Cc1nc2cc(OCCN3CCC4(CC3)C(=O)Nc3ccc(C#N)cc34)cc(C(F)(F)F)c2n1[C@H]1C[C@@](C)(O)C1 [Compound 443, 1′-[2-({2-methyl-1-[(cis)-3-hydroxy-3-methylcyclobutyl]-7-(trifluoromethyl)-1H-1,3-benzodiazol-5-yl}oxy)ethyl]-2-oxo-1,2-dihydrospiro[indole-3,4′-piperidine]-5-carbonitrile] | 2670 nM | 10.2 nM |
| C[C@]1(O)C[C@@H](n2cnc3cc(OCCN4CCC5(CC4)C(=O)Nc4ccc(C(F)F)cc45)cc(C(F)(F)F)c32)C1 [Compound 450, 5-(difluoromethyl)-1′-[2-({1-[(cis)-3-hydroxy-3-methylcyclobutyl]-7-(trifluoromethyl)-1H-1,3-benzodiazol-5-yl}oxy)ethyl]-1,2-dihydrospiro[indole-3,4′-piperidin]-2-one] | 2270 nM | 5.5 nM |
| C[C@]1(O)C[C@@H](n2cnc3cc(OCCN4CCC5(CC4)C(=O)Nc4c(I)cc(Cl)cc45)cc(C(F)(F)F)c32)C1 [Compound 453, 5-chloro-7-iodo-1′-[2-({1-[(cis)-3-hydroxy-3-methylcyclobutyl]-7-(trifluoromethyl)-1H-1,3-benzodiazol-5-yl}oxy)ethyl]-1,2-dihydrospiro[indole-3,4′-piperidin]-2-one] | 935 nM | 19.1 nM |
| C[C@]1(O)C[C@@H](n2cnc3cc(OCCN4CCC5(CC4)C(=O)Nc4ccc(Cl)cc45)cc(F)c32)C1 [Compound 454, 5-chloro-1′-(2-((7-fluoro-1-((cis)-3-hydroxy-3-methylcyclobutyl)-1H-benzo[d]imidazol-5-yl)oxy)ethyl)spiro[indoline-3,4′-piperidin]-2-one] | 473 nM | 24.1 nM |
| CC1(O)CC2(CN(c3ncc(OCCN4CCC5(CC4)C(=O)Nc4ccc(Cl)cc45)cn3)C2)C1 [Compound 459, 5-chloro-1′-{2-[(2-{6-hydroxy-6-methyl-2-azaspiro[3.3]heptan-2-yl}pyrimidin-5-yl)oxy]ethyl}-1,2-dihydrospiro[indole-3,4′-piperidin]-2-one] | 370 nM | 29 nM |
| C[C@]1(O)C[C@@H](N2C(=O)C3(CC3)c3cc(OCCN4CCC5(CC4)C(=O)Nc4ccc(Cl)cc45)cnc32)C1 [Compound 460, 5-chloro-1′-(2-{2′-oxo-1′-[(cis)-3-hydroxy-3-methylcyclobutyl]-1′,2′-dihydrospiro[cyclopropane-1,3′-pyrrolo[2,3-b]pyridin]-5′-yloxy}ethyl)-1,2-dihydrospiro[indole-3,4′-piperidin]-2-one] | 317 nM | 54.1 nM |
| [2H]C([2H])([2H])[C@]1(O)C[C@@H](N2C(=O)CCc3cc(OCCN4CCC5(CC4)C(=O)Nc4ccc(Cl)cc45)cnc32)C1 [Compound 461, 5-chloro-1′-[2-({7-oxo-8-[(cis)-3-hydroxy-3-(^2H3)methylcyclobutyl]-5,6,7,8-tetrahydro-1,8-naphthyridin-3-yl}oxy)ethyl]-1,2-dihydrospiro[indole-3,4′-piperidin]-2-one] | 676 nM | 28.1 nM |
| C[C@]1(O)C[C@@H](n2ncc3cc(OCCN4CCC5(CC4)C(=O)Nc4ccc(Cl)cc45)cc(C(F)(F)F)c32)C1 [Compound 464, 5-chloro-1′-[2-({1-[(cis)-3-hydroxy-3-methylcyclobutyl]-7-(trifluoromethyl)-1H-indazol-5-yl}oxy)ethyl]-1,2-dihydrospiro[indole-3,4′-piperidin]-2-one] | 1190 nM | 5.02 nM |
| C[C@]1(O)C[C@@H](n2ncc3cc(OCCN4CCC5(CC4)C(=O)Nc4ccc(C#N)cc45)cc(C(F)(F)F)c32)C1 [Compound 465, 2-oxo-1′-[2-({1-[(cis)-3-hydroxy-3-methylcyclobutyl]-7-(trifluoromethyl)-1H-indazol-5-yl}oxy)ethyl]-1,2-dihydrospiro[indole-3,4′-piperidine]-5-carbonitrile] | 748 nM | 8.86 nM |
| C[C@]1(O)C[C@@H](n2c(=O)[nH]c3cc(OCCN4CCC5(CC4)C(=O)Nc4ccc(Cl)cc45)cc(C(F)(F)F)c32)C1 [Compound 468, 5-chloro-1′-[2-({2-oxo-1-[(cis)-3-hydroxy-3-methylcyclobutyl]-7-(trifluoromethyl)-2,3-dihydro-1H-1,3-benzodiazol-5-yl}oxy)ethyl]-1,2-dihydrospiro[indole-3,4′-piperidin]-2-one] | 867 nM | 6.45 nM |
| C[C@]1(O)C[C@@H](n2c(=O)[nH]c3cc(OCCN4CCC5(CC4)C(=O)Nc4ccc(C#N)cc45)cc(C(F)(F)F)c32)C1 [Compound 470, 2-oxo-1′-[2-({2-oxo-1-[(cis)-3-hydroxy-3-methylcyclobutyl]-7-(trifluoromethyl)-2,3-dihydro-1H-1,3-benzodiazol-5-yl}oxy)ethyl]-1,2-dihydrospiro[indole-3,4′-piperidine]-5-carbonitrile] | 1110 nM | 179 nM |
